Values of other authors, collected in PMC7618104, “The GLP-1 analogue, exendin-4, improves bone material properties and strength through a central relay in ovariectomized mice” (American journal of physiology. Endocrinology and metabolism, 2025).
Ends that are not written are not given here.

Assays:
CNS = settings: mouse, in vivo, iv; cited from earlier work
Text: (§1) Taken altogether, these studies might support a brain entry through adsorptive transcytosis across brain endothelial cells. The l ...

humans = settings: exogenous GLP-1, humans; cited from earlier work
Text: (§2) Previously, we and others have highlighted the beneficial role of several gut hormones on bone physiology ([5]). Among gut hormones, glucagon-like peptide-1 (GLP-1) was reported to be beneficial for bone strength. Indeed, animals with a genetic impairment of the GLP-1 receptor (GLP-1r) presented with reduced bone mass, deterioration of bone microarchitecture and alterations of bone material properties, especially enzymatic collagen crosslinking, that jeopardized bone strength ([6], [7]). In humans, GLP-1r gene polymorphisms have also been reported to impact bone mineral density and mass ([8]) ...

osteoblast cultures = settings: in vitro study; cited from earlier work
Text: These observations formed the basis for investigating the potential utility of a GLP-1r agonist for the management of bone fragility. Ex-4 has already been administered subcutaneously in preclinical models of bone fragility, including the OVX model used in the present study. Previous studies have reported positive effects of Ex-4 that increased bone mineral density, trabecular microstructure and circulating calcitonin leve ...

[1] = tested on: individuals in randomized clinical trials; settings: cited from earlier work
Text: as §2

brain = settings: in vivo; cited from earlier work
Text: as §1

[2] = tested on: streptozotocin-induced type 1 diabetes mellitus; settings: cited from earlier work

Row | Substance | fracture in individuals affected by type 2 diabetes mellitus [1] | brain entry after peripheral administration (brain) | further results
1 | [Ser8]GLP-1: radiolabeled [Ser8]GLP-1, a stable analogue of GLP-1 (HSEGTFTSDVSSYLEGQAAKEFIAWLVKGRG; also: radiolabeled; UniProt P01275 98-128, looked up, variant A8S) |  |  | CNS access, inhibition by excess unlabeled peptide or exendin antagonist (CNS): not inhibited by excess doses
2 | glucagon-like peptide-1 (HAEGTFTSDVSSYLEGQAAKEFIAWLVKGR; ends and bridges not checked; UniProt P01275 98-127, looked up) [GLP-1, gut hormone] |  |  | bone remodeling (humans): rapidly modulates bone remodeling; collagen maturity in vitro (osteoblast cultures): no direct positive effects of GLP-1 on collagen maturity
3 | liraglutide | contribute to reduce fracture | reported to enter the brain parenchyma | bone resistance to fracture [2]: able to enhance bone resistance to fracture
4 | lixisenatide | contribute to reduce fracture |  | 
5 | semaglutide |  | reported to enter the brain parenchyma | 
